# According to paper PMC4635503, “High-affinity nitrate/nitrite transporters NrtA and NrtB of Aspergillus nidulans exhibit high specificity and different inhibitor sensitivity” (Microbiology, 2015):
# “And” between values parts separate entries of the source, which are not always exact repeats. Equal entries are not always repeated. Where two headings read alike, the source gives them in different places.
# How the values were obtained:
# NrtB [1] = format: cell-based, Aspergillus nidulans; conditions: for Nitrate uptake ± SE: nrtA747 (NrtB); for nature of inhibition of nitrate transport (Lineweaver–Burk): NrtB (expressed in nrtA1); for Ki: inhibitor concentration reducing net nitrate uptake rate by 50 % of control
# Experimental: (§1) These were performed on cultures grown in liquid AMM with 5 mM urea as nitrogen source for a total of 6.5 h at 37 °C ([Brownlee & Arst, 1983]). Urea was used as it (i) is a neutral nitrogen source, neither inducing nor repressing nitrate transport, (ii) has been used routinely in the past and (iii) permitted direct comparison with previously published results. […] Transporter activity was induced by the addition of 10 mM sodium nitrate 100 min prior to assay as described previously ([Brownlee & Arst, 1983]). Assays were carried out in triplicate, generally at pH 6.5, on three independently grown cultures for each strain and expressed as nmol nitrate removed from the medium min^ − 1 (mg dried mycelium)^ − 1, as discussed before ([Brownlee & Arst, 1983]; [Kinghorn et al., 2005]; [Unkles et al., 2012]). Both carbonic acid and bicarbonate chemical species can occur at pH 6.5. Thus potential inhibition of nitrate transport by carbonic acid/bicarbonate was tested at pH 6.5 and bicarbonate at pH 8.3.
# (§2) To effectively assess net uptake, it is necessary that any export, i.e. simultaneous transport in the reverse direction, is minimal.
# (§3) Values of K m and V max were calculated by linear regression of Lineweaver–Burk analyses (1/v against 1/s, where v is net uptake and s is substrate concentration). The kinetic values of nitrate transport by the WT and mutants were compared with those from a previous report ([Unkles et al., 2001]). […] Therefore the kinetic values in the absence of inhibitors from the present study were used as control values. Each K i value was determined by regression of the rates of net nitrate uptake transport versus the range of concentrations of a particular inhibitor: linear or nonlinear regression was used, depending on which type provided the highest r ^2 value. Calculated from each regression was the concentration of the inhibitor that reduced net nitrate uptake rate by 50 % of the control (without inhibitor) rate, which was assessed as the K i value. Lineweaver–Burk analyses were carried out to determine the nature of the inhibition of nitrate transport for each inhibitor.
# [2] = test system: nitrate transport by NrtA and NrtB; assay: Net nitrate transport inhibition assays, strain not specified; format: cell-based, Aspergillus nidulans; conditions: net nitrate transport inhibition assays (Tables 3 and 4)
# Experimental: as §1, §2
# NrtA [3] = target: T1, NrtA (Emericella nidulans, UniProt P22152); assay: cell-based; parameters: mutant nrtB110 (expressing a functional NrtA); endogenous in cells; host or cells: Aspergillus nidulans mycelium, knockout strain nrtB110, nitrate-induced; species or system Aspergillus nidulans; conditions: for nature of inhibition of nitrate transport (Lineweaver–Burk): NrtA (expressed in nrtB110)
# Experimental: as §1, §2, §3
# [4] = test system: A. nidulans WT and mutant strains; format: cell-based, Aspergillus nidulans; conditions: for growth stunting on solid AMM: up to 100 mM, 1 mM nitrate (or proline) as sole nitrogen source, data not shown
# Experimental: (§4) Fungal growth tests were carried out in standard Petri dishes containing defined Aspergillus minimal medium (AMM) agar ([Cove, 1976]), with sodium nitrate or proline as the sole nitrogen source, at 1 or 10 mM concentration. Strains were tested for inhibition by bicarbonate, formate, oxalate, chlorite, sulphite (all purchased as the sodium salt), chlorate (potassium salt), malonate (acid form) or caesium (chloride salt). Stock aqueous solutions of inhibitors were adjusted to pH 6.5 and prepared immediately before use. It should be noted that at pH 6.5, bicarbonate is in approximately 50 % equilibrium with carbonic acid. […] Cultures were incubated routinely at 37 °C for 48 h, and the growth response was scored.
# (§5) Each treatment was carried out in five replicates. […] As caesium was utilized as a chloride salt, a control for potential inhibition by chloride was assessed, by growth on 100 mM sodium chloride (Fig. 4).
# Unlike chlorate, commercial chemical supplies of chlorite typically contain a relatively high percentage (20 %) of contaminants. […] The pH of this solution was adjusted to 6.5 and aliquots incorporated into solid AMM (with nitrate or proline as the nitrogen source) at final concentrations equivalent to those that would be present in agar medium containing 10 mM chlorite (i.e. 1.56 mM sodium chloride, 0.28 mM sodium chlorate, 0.68 mM sodium hydroxide and 0.17 mM sodium carbonate).
# [5] = test system: A. nidulans mutant nrtA1 (functional NrtB); assay: microbe, parasite or virus in culture; format: cell-based, Aspergillus nidulans
# Experimental: as §4, §5
# [6] = test system: A. nidulans mutant nrtB110 (functional NrtA); assay: microbe, parasite or virus in culture; format: cell-based, Aspergillus nidulans
# Experimental: as §4, §5
# [7] = test system: A. nidulans double mutant tbl110 (nrtA747 nrtB110, neither transporter); assay: microbe, parasite or virus in culture; format: cell-based, Aspergillus nidulans; conditions: T110 (neither transporter)
# Experimental: as §4, §5
# NrtA, NrtB (WT strain) = assay: Net nitrate uptake assay and kinetics, WT strain; format: cell-based, Aspergillus nidulans; conditions: mean ± SE; for Ki: WT (NrtA, NrtB), inhibitor concentration reducing net nitrate uptake rate by 50 % of control
# Experimental: as §1, §2, §3
# [8] = test system: A. nidulans WT strain (NrtA, NrtB); assay: MIC growth test on solid AMM, WT strain; format: cell-based, Aspergillus nidulans
# Experimental: as §4, §5
# NrtA [9] = target: T1, NrtA; conditions: cited from earlier work
# NrtB [10] = conditions: cited from earlier work
# A. nidulans WT strain = conditions: ref Wang et al., 2007; cited from earlier work
# [11] = pH 6.5, in presence of the anion, control without anion 2.9 ± 0.1
# [12] = nrtB110 (NrtA), pH 6.5, in presence of the anion, control without anion 10.6 ± 1.4
# [13] = Aspergillus nidulans, 1 mM proline as sole nitrogen source
# [14] = Aspergillus nidulans, 10 mM nitrate as sole nitrogen source
# [15] = Aspergillus nidulans, 10 mM proline as sole nitrogen source
# [16] = nrtB110 (NrtA), 1 mM nitrate as sole nitrogen source
# [17] = nrtB110 (NrtA), 1 mM proline as sole nitrogen source
# [18] = nrtB110 (NrtA), 10 mM nitrate as sole nitrogen source
# [19] = nrtB110 (NrtA), 10 mM proline as sole nitrogen source
# [20] = 1 mM proline as sole nitrogen source
# [21] = 10 mM nitrate as sole nitrogen source
# [22] = 10 mM proline as sole nitrogen source
# [23] = nitrate transport, nrtA1 (NrtB), no inhibitor, mean ± SE
# [24] = nitrate transport, nrtB110 (NrtA), no inhibitor, mean ± SE
# [25] = nitrate transport, WT, no inhibitor
# T1 sequence (P22152 whole entry): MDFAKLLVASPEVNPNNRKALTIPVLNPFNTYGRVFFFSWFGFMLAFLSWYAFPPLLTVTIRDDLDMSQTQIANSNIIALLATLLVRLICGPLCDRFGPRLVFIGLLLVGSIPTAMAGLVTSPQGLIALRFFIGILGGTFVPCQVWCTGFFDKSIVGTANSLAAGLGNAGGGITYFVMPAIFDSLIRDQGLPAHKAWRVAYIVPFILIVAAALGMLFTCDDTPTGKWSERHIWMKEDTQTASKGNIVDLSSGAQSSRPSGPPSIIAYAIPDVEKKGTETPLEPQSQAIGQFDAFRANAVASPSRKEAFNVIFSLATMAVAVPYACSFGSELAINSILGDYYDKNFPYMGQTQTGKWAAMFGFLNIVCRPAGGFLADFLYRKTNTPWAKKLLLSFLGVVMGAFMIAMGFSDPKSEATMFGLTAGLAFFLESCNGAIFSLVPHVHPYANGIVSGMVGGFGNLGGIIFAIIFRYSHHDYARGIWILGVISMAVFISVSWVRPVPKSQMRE
compound,measurement,setting,value
O=CO [Formate],Nitrate uptake ± SE,NrtB [1]; [11],2.7 ± 0.1 nmol NO3 min^− 1 mg^− 1
same,inhibition of nitrate transport / uptake,[2],did not inhibit growth or nitrate uptake
same,Nitrate uptake ± SE,NrtA [3]; [12],8.1 ± 0.4 nmol NO3 min^− 1 mg^− 1
same,growth stunting on solid AMM,[4],no convincing phenotypic evidence of growth stunting
"[Cs+] [Caesium, caesium]",nature of inhibition of nitrate transport (Lineweaver–Burk),NrtB [1],uncompetitive
same,nature of inhibition of nitrate transport (Lineweaver–Burk),NrtB [1]; listed as caesium,uncompetitive inhibition
same,Ki,"NrtB [1]; nrtA1 (NrtB), mean ± SE",2.6 ± 0.02 mM
same,Ki,"NrtB [1]; nrtA1 (NrtB), mean ± SE, listed as caesium",~3 mM
same,Ki,"NrtA [3]; K i, nrtB110 (NrtA), inhibitor concentration reducing net nitrate uptake rate by 50 % of control, mean ± SE",55 mM and 54.8 mM
same,nature of inhibition of nitrate transport (Lineweaver–Burk),NrtA [3],non-competitive inhibitor
same,nature of inhibition of nitrate transport (Lineweaver–Burk),NrtA [3]; listed as caesium,non-competitive inhibition
same,MIC,"[5]; Aspergillus nidulans, 1 mM nitrate as sole nitrogen source",40 mM
same,MIC,[5]; [13],80 mM
same,MIC,[5]; [14],30 mM
same,MIC,[5]; [15],60 mM
same,MIC,[6]; Aspergillus nidulans,> 100 mM
same,MIC,[6]; [16],>100 mM
same,MIC,[6]; [17],>100 mM
same,MIC,[6]; [18],>100 mM
same,MIC,[6]; [19],>100 mM
same,MIC,[7]; [13],100 mM
same,MIC,[7]; [15],> 100 mM
same,Ki,"NrtA, NrtB (WT strain)",45.1 ± 6.1 mM
same,Ki,"NrtA, NrtB (WT strain); listed as caesium",45 mM
same,MIC,"[8]; Aspergillus nidulans, 1 mM nitrate as sole nitrogen source, solid AMM, 37 °C",100 mM
same,MIC,[8]; [13],80 mM
same,MIC,[8]; [14],> 100 mM
same,MIC,[8]; [15],60 mM
"O=C(O)O [Bicarbonate, bicarbonate]",Nitrate uptake ± SE,"NrtB [1]; pH 8.3, in presence of the anion, control without anion 1.9 ± 0.7",1.9 ± 0.3 nmol NO3 min^− 1 mg^− 1
same,inhibition of nitrate transport / uptake,[2],did not inhibit growth or nitrate uptake
same,Nitrate uptake ± SE,"NrtA [3]; nrtB110 (NrtA), pH 8.3, in presence of the anion, control without anion 0.7 ± 0.4",0.5 ± 0.7 nmol NO3 min^− 1 mg^− 1
same,growth stunting on solid AMM,[4],no convincing phenotypic evidence of growth stunting
"O=S(O)O [Sulphite, sulphite]",MIC,[5]; 1 mM nitrate as sole nitrogen source,15 mM
same,MIC,[5]; [20],15 mM
same,MIC,[5]; [21],15 mM
same,MIC,[5]; [22],>25 mM
same,MIC,[6]; [16],15 mM
same,MIC,[6]; [17],15 mM
same,MIC,[6]; [18],15 mM
same,MIC,[6]; [19],>25 mM
same,MIC,[7]; [20],15 mM
same,MIC,[7]; [22],>25 mM
same,concentration at which growth ceased,[4]; media with 10 mM nitrate,15 mM
same,concentration at which growth ceased,[4]; media with 10 mM proline,> 25 mM
same,concentration at which growth ceased,[4]; media with either 1 mM nitrate or proline,15 mM
same,MIC,"[8]; 1 mM nitrate as sole nitrogen source, solid AMM, 37 °C",15 mM
same,MIC,[8]; [20],15 mM
same,MIC,[8]; [21],15 mM
same,MIC,[8]; [22],>25 mM
[Cl-].[Na+] [sodium chloride],effect on growth,"[4]; 100 mM sodium chloride, control for chloride",no effect on growth
Carbonic acid/bicarbonate,Nitrate uptake ± SE,NrtB [1]; [11],2.7 ± 0.1 nmol NO3 min^− 1 mg^− 1
same,Nitrate uptake ± SE,NrtA [3]; [12],11.1 ± 0.4 nmol NO3 min^− 1 mg^− 1
same,growth stunting on solid AMM,[4],no convincing phenotypic evidence of growth stunting
"O=C(O)CC(=O)O [Malonate, malonate]",Nitrate uptake ± SE,NrtB [1]; [11],2.7 ± 0.2 nmol NO3 min^− 1 mg^− 1
same,inhibition of nitrate transport / uptake,[2],did not inhibit growth or nitrate uptake
same,growth stunting on solid AMM,[4],no convincing phenotypic evidence of growth stunting
O=NO [nitrite],K m for nitrite,"NrtA [9]; ref Wang et al., 2008",0.016 mM
same,K m for nitrite,"NrtB [10]; ref Wang et al., 2008",0.011 mM
O=[N+]([O-])O [nitrate],K m,NrtB [1]; [23],0.0114 ± 0.0024 mM
same,V max,NrtB [1]; [23],3.6 ± 0.2
same,rate of nitrate efflux as % of influx,A. nidulans WT strain,8%
same,K m for nitrate,"NrtA [9]; ref Unkles et al., 2001",0.096 mM
same,K m,NrtA [3]; [24],0.041 ± 0.0048 mM
same,V max,NrtA [3]; [24],9.1 ± 0.8
same,K m for nitrate,"NrtB [10]; ref Unkles et al., 2001",0.011 mM
same,K m,"NrtA, NrtB (WT strain); [25]",0.0571 ± 0.0026 mM
same,V max,"NrtA, NrtB (WT strain); [25]",14.2 ± 0.8
O=C(O)C(=O)O [Oxalate],Nitrate uptake ± SE,NrtB [1]; [11],2.4 ± 0.1 nmol NO3 min^− 1 mg^− 1
same,inhibition of nitrate transport / uptake,[2],did not inhibit growth or nitrate uptake
same,Nitrate uptake ± SE,NrtA [3]; [12],9.7 ± 0.4 nmol NO3 min^− 1 mg^− 1
same,growth stunting on solid AMM,[4],no convincing phenotypic evidence of growth stunting
